Laboratory results: US5686486A, “4-hydroxy-benzopyran-2-ones and 4-hydroxy-cycloalkyl[b]pyran-2-ones useful to treat retroviral infections” (priority 1995, dated 1997)
Several values for one entry are separate records, joined by “and”; a condition that tells them apart may be missing. Identical values can stand only once. Square brackets hold non-standard residues; d marks the D form. Peptide text beside a SMILES is read from it. * marks the point of attachment. Sta = CC(C)C[C@H](N)[C@@H](O)CC(=O)O; Isovaleryl = CC(C)CC(=O)*

Key:
[1] = biological target: T1, HIV-1 protease (Human immunodeficiency virus type 1 group M subtype B, UniProt P04585); assay: biochemical; settings: for inhibition at 0.37 µM: read-out: HIV-1 Protease % Inhib, dose 0.370 uM; for inhibition at 1.1 µM: read-out: HIV-1 Protease % Inhib, dose 1.100 uM; for inhibition at 30 µM: read-out: HIV-1 Protease % Inhib, dose 30.000 uM
Outline: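 Percent inhibition derived from fluorescent cleavage product separated by filtration after streptavidin-bead capture of intact biotin/FITC substrate. Reaction: enzyme (10 μl, 0.1 μM stock) with substrate (20 μl, 0.2 μM stock) and compound, 1 h at room temperature in dark, pH 5.5 acetate buffer with 1.0 M NaCl and 0.05% NP-40.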

[2] = system: HIV-1IIIB; assay: inhibition of retroviral replication in HIV-1IIIB infected human T-cell lines (MT4 and H9); type: cell-based; settings: e.g.
Experimental: Several compounds of the present invention, such as N-[3-[cyclopropyl(5,6,7,8,9,10-hexahydro-4-hydroxy-2-oxo-2H-cycloocta[b]pyran-3-yl)methyl]phenyl]-4-fluorobenzenesulfonamide and 4-cyano-N-[3-[cyclopropyl(5,6,7,8,9,10-hexahydro-4-hydroxy-2-oxo-2H-cycloocta[b]pyran-3-yl)methyl]phenyl]-benzenesulfonamide were tested in known human cell lines, such as human T-cell lines, e.g., MT4 and H9, which were infected with HIV-1IIIB, and certain of these compounds were further tested in peripheral blood mononuclear cells (PBMC), which were infected with HIV-1JRCSF (a clinical isolate).

[3] = system: HIV-1; settings: single dose; cited from earlier work
[4] = biological target: T1, HIV-1 protease; assay: biochemical; settings: read-out: HIV-1 FITC KI
Outline: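 Enzyme (40 nM stock) and substrate (200 μM stock) incubated with inhibitor, 24–48 two-fold serial concentrations, for 90 min at room temperature, then quenched with avidin beads. Nonlinear least-squares analysis gives Ki; a known-Ki inhibitor validates each run.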

[5] = system: HIV protease; settings: cited from earlier work

O=c1oc2c(c(O)c1C(c1cccc(NS(=O)(=O)c3ccc(F)cc3)c1)C1CC1)CCCCCC2 (centres unmarked) [Example 268, N-[3-[Cyclopropyl(5,6,7,8,9,10-hexahydro-4-hydroxy-2-oxo-2H-cycloocta[b]pyran-3-yl)methyl]phenyl]-4-fluoro-benzenesulfonamide]
inhibition at 0.123 µM ([1]; read-out: HIV-1 Protease % Inhib, dose 0.123 uM): 71.2% | inhibition at 0.37 µM [1]: 88% | inhibition at 1.1 µM [1]: 96.2% | inhibition at 3.3 µM ([1]; read-out: HIV-1 Protease % Inhib, dose 3.300 uM): 97.6% | inhibition at 10 µM ([1]; read-out: HIV-1 Protease % Inhib, dose 10.000 uM): 101% | inhibition at 30 µM [1]: 101% | inhibition of retroviral replication [2]: found to inhibit retrovital replication

O=c1ccc2ccc(O)cc2o1 [umbelliferone]
effect on HIV-1 replication and viral transmission [3]: inhibitory effect

N#Cc1ccc(S(=O)(=O)Nc2cccc(C(c3c(O)c4c(oc3=O)CCCCCC4)C3CC3)c2)cc1 (centres unmarked) [Example 262, 4-Cyano-N-[3-[cyclopropyl(5,6,7,8,9,10-hexahydro-4-hydroxy-2-oxo-2H-cycloocta[b]pyran-3-yl)methyl]phenyl]-benzenesulfonamide]
HIV-1 Protease % Inhib ([1]; dose 0.123 uM): 83.32% | HIV-1 Protease % Inhib ([1]; dose 3.300 uM): 121.87% | HIV-1 Protease % Inhib ([1]; dose 10.000 uM): 119.5% | inhibition at 0.37 µM [1]: 103% | inhibition at 1.1 µM [1]: 113% | inhibition at 30 µM [1]: 115% | inhibition of retroviral replication [2]: found to inhibit retrovital replication | Ki [4]: 1.4 nM and 0.44 nM and 1.01 nM and 0.6 nM

CC(=O)CC(c1ccccc1)c1c(O)c2ccccc2oc1=O (stereo not drawn) [warfarin, 3-α-phenyl-β-acetylethyl-4-hydroxycoumarin]
effect on HIV-1 replication and viral transmission [3]: inhibitory effect | HIV protease inhibition [5]: displayed HIV protease inhibition

CC(C)CC(=O)N[C@H](C(=O)N[C@H](C(=O)N[C@@H](CC(C)C)[C@@H](O)CC(=O)N[C@@H](C)C(=O)N[C@@H](CC(C)C)[C@@H](O)CC(=O)O)C(C)C)C(C)C [Pepstatin A] (Isovaleryl-VV[Sta]A[Sta]-OH)
HIV protease inhibition [5]: inhibitor of HIV-I protease

O=c1cc(O)c2ccccc2o1 [4-hydroxy-coumarin]
effect on HIV-1 replication and viral transmission [3]: inhibitory effect
